Assay [1] has as its system Sendai virus induced human leukocytes. Put plainly: α-interferon production in Sendai virus induced human leukocytes, ELISA of supernatant. Type of assay: cell-based. The note with it: for effect on production of α-interferon (in words): virus induced primary leukocytes. The method, then: The human leukocytes used according to the invention are prepared from buffy coats by an initial centrifugation to fractionate the components, followed by sequential removal of the plasma layer and of the leukocyte fraction by suction. Residual red blood cells contaminating the leukocyte fraction are lysed twice with 2-4 volumes of cold 0.83% ammonium chloride and each lysis step is followed by centrifugation to collect the cells. The final leukocyte fraction is resuspended in a basal medium, e.g. EMEM (Eagle's minimum essential medium) supplemented with polyethylene glycol-(PEG)-precipitated human plasma. PEG-precipitated plasma is prepared by adding PEG 6000 to a final concentration of 6% (w/w) to human plasma. After precipitation for 3-5 days in a cold room the supernatant is removed and stored frozen until used. The temperature of the incubation medium is set to 36-37° C. and continuous stirring is used. Human PEG-precipitated plasma is added to a concentration of 1-5% (v/v), preferably 4% (v/v). A low amount of α-interferon (normally 100 IU/ml) is added to the incubation medium as a priming step, but other concentrations, up to several thousands of units per ml can be used. Human leukocytes are then added to a concentration of about 3-15 million cells per mL, preferably 7-11 million cells per mL. The similar size of the enhancing effect observed using the different cell concentrations makes it probable that the effect can be seen also at cell concentrations outside this range. The priming step is normally allowed to proceed for 1-5 hours, preferably 1.5-2 hours. […] A decrease of the incubation temperature to 29° C. -32° C. is performed (Morser, J. And Shuttleworth, J. (1981) J. Gen. Virology 56, 163-174) after another 1 to 4 hours, preferable after 1 to 2 hours. The concentration range where the additives are effective in increasing the interferon production varies between the different compounds but for the least toxic solvents a positive effect can be seen in the range of 1 mM-0.3 M, preferably in the range of 3 mM-50 mM and most preferably within 5 mM-20 mM. For the more toxic solvents the suitable concentration lies within the more limited ranges. […] After these additions, the incubation is allowed to proceed overnight with continuous stirring. A centrifugation step is performed to remove the cells and the supernatants are analysed by an ELISA to quantify α-interferon. Human leukocytes prepared from buffy coats and used in concentrations between 8 and 11 million cells per mL are incubated in a basal media (either EMEM or a modified EMEM) supplemented with 1.5 g/L of tricine and 4% (v/v) PEG precipitated plasma. […] The cells are removed by a centrifugation step and the supernatants are analysed by an ELISA to quantify α-interferon. […]
In general terms: In an ELISA, binding on a coated surface is turned into a signal by an enzyme label.

The subject of assay [2] is non induced human leukocytes. The assay can be described thus: α-interferon production in non induced human leukocytes, ELISA of supernatant. Type of assay: cell-based. Conditions: absence of a viral inducer. As to the method: Human leukocytes prepared from buffy coats and used in concentrations between 8 and 11 million cells per mL are incubated in a basal media (either EMEM or a modified EMEM) supplemented with 1.5 g/L of tricine and 4% (v/v) PEG precipitated plasma. The experiments are performed in a volume of 40 mL medium in 100 mL glass bottles under continuous stirring. The cells are primed with 100 IU/mL α-interferon for 1.5 hours at 37° C. before addition of 30 mL/L Sendai virus. After 1.5 hours the incubation temperature is decreased to 30° C. and the organic solvents are added to the incubation medium. The solvent used are acetone, DMSO (final concentration: 5 mL/L), 2-butanone, NN-dimethylacetamide, NMP, tetramethylene sulfoxide (2.5 mL/L), TMU (1.5 mL/L), 2-pyrrolidinone (1.25 mL/L), 4-metyl-2-pentanone, 1,3-dimetyl-2-imidazolidinone and N-ethyl-2-pyrrolidinone (0.6 mL/L). The incubation is then allowed to proceed overnight. The cells are removed by a centrifugation step and the supernatants are analysed by an ELISA to quantify α-interferon.
Example 1 is repeated with the same incubation conditions but with addition of 2-ABMP in combination with DMSO. The enhancing agents are added both to Sendai virus induced leukocytes and to non induced leukocytes and the effect on the α-interferon production is compared. The 2-ABMP is added at a concentration of 50 μg/ml and the amount of DMSO added is 5 mL/L.

The results in this text go back to patent US6962695B1, “Modification of interferon alpha production” (Bionative AB, priority 1998, dated 2005).

As for `CCCC(=O)[O-].[Na+]` [sodium butyrate], the “effect on yield of α-interferon (in words)” value in assay [1] (pre-treatment of primary leukocytes) is “decrease”. For `Cn1c(=O)c2[nH]cnc2n(C)c1=O` [theophylline], in assay [1], the “effect on production of α-interferon (in words)” value (from here on “effect on production”) is on record as “enhanced”.

`C[S+](C)[O-]` [dimethylsulfoxide]: in assay [1], the “effect on production” value is on record as “enhanced”. Consider `Cc1nc(N)nc(O)c1Br` [2-ABMP, 2-amino-5-bromo-6-methyl-4-pyrimidinol], for which the “induction of α-interferon (in words)” value in assay [2] was “did not induce α-interferon”. The “effect on production” value in assay [1] was “act as an enhancing agent”.
